# Results published in patent US9884048B2, “ERK inhibitors” (Merck Sharp & Dohme Corp., priority 2014, dated 2018).
# Target: phosphorylated active hERK2 enzyme (Homo sapiens (Human), UniProt P28482)
# Conditions: not given
# Sequence of phosphorylated active hERK2 enzyme (P28482 whole entry): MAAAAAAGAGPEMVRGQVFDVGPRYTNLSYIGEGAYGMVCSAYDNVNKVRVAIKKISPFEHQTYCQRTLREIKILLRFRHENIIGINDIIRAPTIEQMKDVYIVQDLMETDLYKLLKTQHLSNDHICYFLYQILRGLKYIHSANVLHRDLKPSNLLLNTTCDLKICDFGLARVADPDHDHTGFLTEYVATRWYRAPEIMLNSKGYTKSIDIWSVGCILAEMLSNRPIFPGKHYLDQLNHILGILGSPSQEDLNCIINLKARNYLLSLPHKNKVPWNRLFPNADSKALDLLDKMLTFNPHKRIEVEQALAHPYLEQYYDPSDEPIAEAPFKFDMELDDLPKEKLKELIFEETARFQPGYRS
row,Structure (SMILES),IC50 [µM]
1,"CO[C@H]1CCCC[C@@H]1NC(=O)Nc1cc2cnn(-c3ccnc(C)c3)c2cn1 (racemic) [Example 145, Racemic 1-[(1S,2S) and (1R,2R)-2-methoxycyclohexyl]-3-[1-(2-methylpyridin-4-yl)-1H-pyrazolo[3,4-c]pyridin-5-yl)urea]",0.122
2,"CCO[C@H]1CCCC[C@@H]1NC(=O)Nc1cc2cnn(-c3ccnc(C)c3)c2cn1 (racemic) [Example 146, Racemic 1-[(1S,2S) and (1R,2R)-2-ethoxycyclohexyl]-3-[1-(2-methylpyridin-4-yl)-1H-pyrazolo[3,4-c]pyridin-5-yl]urea]",0.18
3,"CCO[C@H]1CCC[C@@H]1NC(=O)Nc1cc2cnn(-c3ccnc(C)c3)c2cn1 (racemic) [Example 147, Racemic 1-[(1S,2S) and (1R,2R)-2-ethoxycyclopentyl]-3-[1-(2-methylpyridin-4-yl)-1H-pyrazolo[3,4-c]pyridin-5-yl]urea]",0.0337
4,"Cc1cc(-n2ncc3cc(NC(=O)N[C@H]4CCC[C@H]4c4ccccc4)ncc32)ccn1 (racemic) [Example 148, Racemic 1-[1-(2-methylpyridin-4-yl)-1H-pyrazolo[3,4-c]pyridin-5-yl]-3-[(1S,2S) and (1R, 2R)-2-phenylcyclopentyl]urea]",0.00793
5,"Cc1cc(-n2ncc3cc(NC(=O)N[C@H]4CCCC[C@@H]4NC(=O)c4ccccc4)ncc32)ccn1 (racemic) [Example 152, Racemic Trans N-[(1S,2S) and (1R, 2R)-2-({[1-(2-methylpyridin-4-yl)-1H-pyrazolo[3,4-c]pyridin-5-yl]carbamoyl}amino)cyclo-hexy]benzamide]",0.711
6,"Cc1cc(-n2ncc3cc(NC(=O)N[C@H]4CCC[C@H]4c4ccc(F)cc4)ncc32)ccn1 (racemic) [Example 153, Racemic cis 1-[(1S,2S) and (1R,2R)-2-(4-fluorophenyl)cyclopentyl]-3-[1-(2-methylpyridin-4-yl)-1H-pyrazolo[3,4-c]pyridin-5-yl]urea]",0.0423
7,"Cc1cc(-n2ncc3cc(NC(=O)N[C@H]4CCC[C@@H]4Oc4ccc(F)cc4)ncc32)ccn1 (racemic) [Example 166, Racemic trans 1-[(1S,2S) and (1R,2R)-2-(4-fluorophenoxy)cyclopentyl]-3-[1-(2-methylpyridin-4-yl)-1H-pyrazolo[3,4-c]-pyridin-5-yl)urea]",0.0666
8,"Cc1cc(-n2ncc3cc(NC(=O)N[C@H]4CCCC[C@H]4Cc4ccccc4)ncc32)ccn1 (racemic) [Example 167, Racemic cis 1-[(1S,2S) and (1R,2R)-2-benzylcyclohexyl]-3-[1-(2-methylpyridin-4-yl)-1H-pyrazolo[3,4-c]pyridin-5-yl)urea]",0.0231
9,"Cc1cc(-n2ncc3cc(NC(=O)N[C@H]4CCC[C@@H]4c4ccccc4)ncc32)ccn1 (racemic) [Example 168, Racemic trans 1-[1-(2-methylpyridin-4-yl)-1H-pyrazolo[3,4-c]pyridin-5-yl]-3-[(1S,2R) and (1R,2S)-2-phenylcyclopentyl]urea]",0.00734
10,"Cc1cc(-n2ncc3cc(NC(=O)N[C@H]4CCCC[C@H]4c4ccc(F)cc4)ncc32)ccn1 (racemic) [Example 174, Racemic cis 1-[(1S,2S) and (1R,2R)-2-(4-fluorophenyl)cyclohexyl]-3-[1-(2-methylpyridin-4-yl)-1H-pyrazolo[3,4-c]pyridin-5-yl]urea]",0.0191

# Same assay, conditions: ERK2 IC50, IMAP-FP assay; 0.5 nM hERK2, 30 μM ATP; 10 point titration, 3 μM starting concentration
row,Structure (SMILES),IC50 [µM]
1,"Cc1cc(-n2ncc3cc(NC(=O)N[C@H]4CCCC[C@@H]4c4ccccc4)ncc32)ccn1 (racemic) [Example 151, Racemic trans 1-[1-(2-methylpyridin-4-yl)-1H-pyrazolo[3,4-c]pyridin-5-yl]-3-[(1S,2R) and (1R,2S)-2-phenylcyclohexyl]urea]",0.00365
2,"Cc1cc(-n2ncc3cc(NC(=O)N[C@H]4CCCC[C@@H]4c4ccccc4)ncc32)ccn1 (racemic) [Example 169, Racemic trans 1-[1-(2-methylpyridin-4-yl)-1H-pyrazolo[3,4-c]pyridin-5-yl]-3-[(1S,2R) and (1R,2S)-2-phenylcyclohexyl]urea]",0.0657

# Same assay, conditions: read-out: ERK2 IC50; IMAP-FP assay; 0.5 nM hERK2, 30 μM ATP; 10 point titration, 3 μM starting concentration
row,Structure (SMILES),IC50 [µM]
1,"Cc1cc(-n2ncc3cc(NC(=O)N[C@H]4CN(C)C[C@@H]4c4ccccc4C)ncc32)ccn1 (single isomer, unassigned) [Example 36, 1-[(3R,4S) or (3S, 4R)-1-methyl-4-(2-methylphenyl)pyrrolidin-3-yl]-3-[1-(2-methylpyridin-4-yl)-1H-pyrazolo[3,4-c]pyridin-5-yl)urea]",0.00083
2,"CO[C@H]1CN(Cc2c(F)cccc2F)C[C@@H]1NC(=O)Nc1cc2cnn(-c3ccnc(C)c3)c2cn1 (single isomer, unassigned) [Example 273, 1-[(3S,4S) or (3R, 4R)-1-(2,6-difluorobenzyl)-4-methoxypyrrolidin-3-yl]-3-[1-(2-methylpyridin-4-yl)-1H-pyrazolo[3,4-c]pyridin-5-yl]urea]",2.06
3,"CO[C@H]1CN(Cc2c(F)cccc2F)C[C@@H]1NC(=O)Nc1cc2cnn(-c3ccnc(C)c3)c2cn1 (single isomer, unassigned) [Example 274, 1-[(3R,4R) or (3S, 4S)-1-(2,6-difluorobenzyl)-4-methoxypyrrolidin-3-yl]-3-[1-(2-methylpyridin-4-yl)-1H-pyrazolo[3,4-c]pyridin-5-yl]urea]",0.00354
4,"O=C(NCc1ccc(F)cc1)Nc1cc2cnn(-c3ccc(F)cc3)c2cn1 [Example 1, 1-(4-fluorobenzyl)-3-(1-(4-fluorophenyl)-1H-pyrazolo[3,4-c]pyridin-5-yl)urea]",0.026
5,"O=C(NCc1ccccc1)Nc1cc2cnn(-c3ccncc3)c2cn1 [Example 2, 1-benzyl-3-(1-pyridin-4-yl-1H-pyrazolo[3,4-c]pyridin-5-yl)urea]",0.0027
6,"C[C@@H](NC(=O)Nc1cc2cnn(-c3ccc(F)cc3)c2cn1)c1ccc(F)cc1 [Example 3, 1-[(1R)-1-(4-fluorophenyl)ethyl]-3-[1-(4-fluorophenyl)-1H-pyrazolo[3,4-c]pyridin-5-yl)urea]",0.0106
7,"Cn1cc(-n2ncc3cc(NC(=O)NCc4ccc(F)cc4)ncc32)cn1 [Example 4, 1-(4-fluorobenzyl)-3-[1-(1-methyl-1H-pyrazol-4-yl)-1H-pyrazolo[3,4-c]pyridin-5-yl)urea]",0.0413
8,"C[C@@H](NC(=O)Nc1cc2cnn(-c3cnn(C)c3)c2cn1)c1ccc(F)cc1 [Example 5, 1-[(1R)-1-(4-fluorophenyl)ethyl]-3-[1-(1-methyl-1H-pyrazol-4-yl)-1H-pyrazolo[3,4-c]pyridin-5-yl)urea]",0.0122
9,"O=C(NCc1ccc(F)cc1)Nc1cc2cnn(-c3ccncc3)c2cn1 [Example 6, 1-(4-fluorobenzyl)-3-(1-pyridin-4-yl-1H-pyrazolo[3,4-c]pyridin-5-yl)urea]",0.0018
10,"C[C@@H](NC(=O)Nc1cc2cnn(-c3ccncc3)c2cn1)c1ccc(F)cc1 [Example 7, 1-[(1R)-1-(4-fluorophenyl)ethyl]-3-(1-pyridin-4-yl-1H-pyrazolo[3,4-c]pyridin-5-yl)urea]",0.0162
11,"O=C(NCCc1ccccc1)Nc1cc2cnn(-c3ccncc3)c2cn1 [Example 8, 1-(2-phenylethyl)-3-(1-pyridin-4-yl-1H-pyrazolo[3,4-c]pyridin-5-yl)urea]",0.0162
12,"COc1ccc(CNC(=O)Nc2cc3cnn(-c4ccncc4)c3cn2)cc1 [Example 9, 1-(4-methoxybenzyl)-3-(1-pyridin-4-yl-1H-pyrazolo[3,4-c]pyridin-5-yl)urea]",0.0053
